Test results published in patent KR20110010755A, “결정질 2-((2s,3r,4e,6e,10e,12s)-13-(4-플루오로페녹시)-2,3,12-(트리히드록시트리데카-4,6,10-트리엔-8-이닐)옥시)아세트산의 무수물 및 수화물 형태” (바이엘 쉐링 파마 악티엔게젤샤프트, priority 2008, dated 2009).
Each block holds one compound with its values, some of them ahead of it.

Columns and labels:
[1] = Relative chemical stability of polymorph I over 4 weeks under storage (HPLC purity); assay type: physicochemical; details: for HPLC purity: week 0; for HPLC purity at 336 h / HPLC purity at 672 h: solid storage; for HPLC purity at 336 h: week 2; for HPLC purity at 672 h: week 4
[2] = Hygroscopicity: water sorption/desorption in an automated water sorption analyser, 25 ℃; assay type: physicochemical
[3] = tested on: human neutrophils [인간 호중구]; details: through human endothelial cells and epithelial cells, e.g. human intestinal epithelial cell line T84; literature; cited from earlier work

HPLC purity ([1]; 25 ℃, dry): 97.36%
HPLC purity ([1]; 25 ℃/60%RH): 97.36%
HPLC purity ([1]; 40 ℃, dry): 97.36%
HPLC purity ([1]; 40 ℃/75%RH): 97.36%
HPLC purity at 336 h ([1]; 25 ℃, dry): 97.5%
HPLC purity at 672 h ([1]; 25 ℃, dry): 97.5%
HPLC purity at 336 h ([1]; 25 ℃/60%RH): 97.5%
HPLC purity at 672 h ([1]; 25 ℃/60%RH): 97.7%
HPLC purity at 336 h ([1]; 40 ℃, dry): 96.9%
HPLC purity at 672 h ([1]; 40 ℃, dry): 96.4%
HPLC purity at 336 h ([1]; 40 ℃/75%RH): 95.9%
HPLC purity at 672 h ([1]; 40 ℃/75%RH): 92.5%
moisture adsorbed ([2]; 80% relative humidity, corresponds to the dihydrate of the substance): ~8%
hygroscopicity ([2]; in words): 흡습성
reversibility of hydration ([2]; in words): 가역적
relative humidity at which polymorph I transforms into the hydrate ([2]; relative humidity): > 60%
Compound: O=C(O)COC[C@H](O)[C@H](O)/C=C/C=C/C#C/C=C/[C@H](O)COc1ccc(F)cc1 [다형체 I, 2-((2S,3R,4E,6E,10E,12S)-13-(4-플루오로페녹시)-2,3,12-트리히드록시트리데카-4,6,10-트리엔-8-이닐옥시)아세트산]

Compound: CCCCC[C@H](O)/C=C/C=C\C=C\C=C\[C@@H](O)[C@@H](O)CCCC(=O)O [리폭신 A4]
inhibition of transmigration of human neutrophils [3]: 억제한다

relative humidity at which transformation into polymorph I is observed ([2]; relative humidity, reversal of hydration): < 40%
Compound: O=C(O)COC[C@H](O)[C@H](O)/C=C/C=C/C#C/C=C/[C@H](O)COc1ccc(F)cc1 [수화물, 2-((2S,3R,4E,6E,10E,12S)-13-(4-플루오로페녹시)-2,3,12-트리히드록시트리데카-4,6,10-트리엔-8-이닐옥시)아세트산]
